From PubChem BioAssay (NCI)
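Method: 48-hour compound exposure of cells in 96-well plates, five concentrations, linear interpolation of endpoints. TGI marks complete inhibition of growth.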

How the values were obtained:
Test in all cases: NCI tumour cell line growth inhibition, 48 h
HS 578T breast = tested on: HS 578T breast
SN12C renal = tested on: SN12C renal
MDA-MB-435 = tested on: MDA-MB-435
M14 melanoma = tested on: M14 melanoma
NCI-H460 lung = tested on: NCI-H460 lung
SF-539 CNS = tested on: SF-539 CNS
UACC-62 melanoma = tested on: UACC-62 melanoma
OVCAR-5 ovarian = tested on: OVCAR-5 ovarian
T-47D breast = tested on: T-47D breast
MDA-N = tested on: MDA-N
SNB-19 CNS = tested on: SNB-19 CNS
HOP-92 NSCLC = tested on: HOP-92 NSCLC
DU-145 prostate = tested on: DU-145 prostate
NCI-H522 lung = tested on: NCI-H522 lung
KM12 colon = tested on: KM12 colon
IGROV1 ovarian = tested on: IGROV1 ovarian
HOP-62 NSCLC = tested on: HOP-62 NSCLC
SW-620 colon = tested on: SW-620 colon
OVCAR-3 ovarian = tested on: OVCAR-3 ovarian
U251 CNS = tested on: U251 CNS
NCI-H226 lung = tested on: NCI-H226 lung
SK-MEL-5 melanoma = tested on: SK-MEL-5 melanoma
K-562 leukemia = tested on: K-562 leukemia
MCF7 breast = tested on: MCF7 breast
UACC-257 melanoma = tested on: UACC-257 melanoma
SK-MEL-2 melanoma = tested on: SK-MEL-2 melanoma
EKVX NSCLC = tested on: EKVX NSCLC
CCRF-CEM leukemia = tested on: CCRF-CEM leukemia
MOLT-4 leukemia = tested on: MOLT-4 leukemia
BT-549 breast = tested on: BT-549 breast
HCC-2998 colon = tested on: HCC-2998 colon
CAKI-1 renal = tested on: CAKI-1 renal
MALME-3M melanoma = tested on: MALME-3M melanoma
SNB-75 CNS = tested on: SNB-75 CNS
LOX IMVI melanoma = tested on: LOX IMVI melanoma
PC-3 prostate = tested on: PC-3 prostate
OVCAR-4 ovarian = tested on: OVCAR-4 ovarian
SF-268 CNS = tested on: SF-268 CNS
OVCAR-8 ovarian = tested on: OVCAR-8 ovarian
ACHN renal = tested on: ACHN renal
UO-31 renal = tested on: UO-31 renal
TK-10 renal = tested on: TK-10 renal
SF-295 CNS = tested on: SF-295 CNS
786-0 renal = tested on: 786-0 renal
SK-OV-3 ovarian = tested on: SK-OV-3 ovarian
MDA-MB-231 breast = tested on: MDA-MB-231 breast
HCT-15 colon = tested on: HCT-15 colon
RXF 393 renal = tested on: RXF 393 renal
SR leukemia = tested on: SR leukemia
HL-60(TB) leukemia = tested on: HL-60(TB) leukemia
A549 NSCLC = tested on: A549 NSCLC
NCI-H23 lung = tested on: NCI-H23 lung
A498 renal = tested on: A498 renal
COLO 205 colon = tested on: COLO 205 colon
HCT-116 colon = tested on: HCT-116 colon
HT29 colon = tested on: HT29 colon
RPMI-8226 leukemia = tested on: RPMI-8226 leukemia
NCI/ADR-RES ovarian = tested on: NCI/ADR-RES ovarian
SK-MEL-28 melanoma = tested on: SK-MEL-28 melanoma

COc1ccc(/C(CC2OC(=O)c3ccccc32)=N\NC(N)=O)cc1 (stereo not drawn)
TGI (HS 578T breast): > 100 µM | TGI (SN12C renal): > 100 µM | TGI (MDA-MB-435): > 100 µM | TGI (M14 melanoma): > 100 µM | TGI (NCI-H460 lung): > 100 µM | TGI (SF-539 CNS): > 100 µM | TGI (UACC-62 melanoma): > 100 µM | TGI (OVCAR-5 ovarian): > 100 µM | TGI (T-47D breast): > 100 µM | TGI (MDA-N): > 100 µM | TGI (SNB-19 CNS): > 100 µM | TGI (HOP-92 NSCLC): > 100 µM | TGI (DU-145 prostate): > 100 µM | TGI (NCI-H522 lung): > 100 µM | TGI (KM12 colon): > 100 µM | TGI (IGROV1 ovarian): > 100 µM | TGI (HOP-62 NSCLC): > 100 µM | TGI (SW-620 colon): > 100 µM | TGI (OVCAR-3 ovarian): > 100 µM | TGI (U251 CNS): > 100 µM | TGI (NCI-H226 lung): > 100 µM | TGI (SK-MEL-5 melanoma): > 100 µM | TGI (K-562 leukemia): > 100 µM | TGI (MCF7 breast): > 100 µM | TGI (UACC-257 melanoma): > 100 µM | TGI (SK-MEL-2 melanoma): > 100 µM | TGI (EKVX NSCLC): > 100 µM | TGI (CCRF-CEM leukemia): > 100 µM | TGI (MOLT-4 leukemia): > 100 µM | TGI (BT-549 breast): > 100 µM | TGI (HCC-2998 colon): > 100 µM | TGI (CAKI-1 renal): > 100 µM | TGI (MALME-3M melanoma): > 100 µM | TGI (SNB-75 CNS): > 100 µM | TGI (LOX IMVI melanoma): > 100 µM | TGI (PC-3 prostate): > 100 µM | TGI (OVCAR-4 ovarian): > 100 µM | TGI (SF-268 CNS): > 100 µM | TGI (OVCAR-8 ovarian): > 100 µM | TGI (ACHN renal): > 100 µM | TGI (UO-31 renal): > 100 µM | TGI (TK-10 renal): > 100 µM | TGI (SF-295 CNS): > 100 µM | TGI (786-0 renal): > 100 µM | TGI (SK-OV-3 ovarian): > 100 µM | TGI (MDA-MB-231 breast): > 100 µM | TGI (HCT-15 colon): > 100 µM | TGI (RXF 393 renal): > 100 µM | TGI (SR leukemia): > 100 µM | TGI (HL-60(TB) leukemia): > 100 µM | TGI (A549 NSCLC): > 100 µM | TGI (NCI-H23 lung): > 100 µM | TGI (A498 renal): > 100 µM | TGI (COLO 205 colon): > 100 µM | TGI (HCT-116 colon): > 100 µM | TGI (HT29 colon): > 100 µM | TGI (RPMI-8226 leukemia): > 100 µM | TGI (NCI/ADR-RES ovarian): > 100 µM | TGI (SK-MEL-28 melanoma): > 100 µM

Oc1ccc(SCc2cc(O)ccc2O)cc1
TGI (HS 578T breast): 97 µM | TGI (SN12C renal): 28.1 µM | TGI (MDA-MB-435): 27.1 µM | TGI (M14 melanoma): 33.7 µM | TGI (NCI-H460 lung): > 86.7 µM | TGI (SF-539 CNS): 12.4 µM | TGI (UACC-62 melanoma): 53.2 µM | TGI (OVCAR-5 ovarian): 49.5 µM | TGI (T-47D breast): 30.5 µM | TGI (MDA-N): 28.6 µM | TGI (SNB-19 CNS): > 80.2 µM | TGI (HOP-92 NSCLC): > 47.2 µM | TGI (DU-145 prostate): > 100 µM | TGI (NCI-H522 lung): 4.88 µM | TGI (KM12 colon): 46.9 µM | TGI (IGROV1 ovarian): 25.6 µM | TGI (HOP-62 NSCLC): 43.7 µM | TGI (SW-620 colon): > 62.8 µM | TGI (OVCAR-3 ovarian): 22.4 µM | TGI (U251 CNS): 28.4 µM | TGI (NCI-H226 lung): 35.5 µM | TGI (SK-MEL-5 melanoma): 22.5 µM | TGI (K-562 leukemia): > 100 µM | TGI (MCF7 breast): 27.4 µM | TGI (UACC-257 melanoma): > 50.3 µM | TGI (SK-MEL-2 melanoma): 39.2 µM | TGI (EKVX NSCLC): 41.7 µM | TGI (CCRF-CEM leukemia): > 100 µM | TGI (MOLT-4 leukemia): > 52.9 µM | TGI (BT-549 breast): 16.5 µM | TGI (HCC-2998 colon): > 68.9 µM | TGI (CAKI-1 renal): 19.7 µM | TGI (MALME-3M melanoma): 36.2 µM | TGI (SNB-75 CNS): > 65.9 µM | TGI (LOX IMVI melanoma): > 53.1 µM | TGI (PC-3 prostate): > 52.7 µM | TGI (OVCAR-4 ovarian): 18.5 µM | TGI (SF-268 CNS): > 62.7 µM | TGI (OVCAR-8 ovarian): 41.9 µM | TGI (ACHN renal): 26.8 µM | TGI (UO-31 renal): 20.7 µM | TGI (TK-10 renal): 33.9 µM | TGI (SF-295 CNS): 39 µM | TGI (786-0 renal): 36.4 µM | TGI (SK-OV-3 ovarian): > 96.7 µM | TGI (MDA-MB-231 breast): 36.4 µM | TGI (HCT-15 colon): 30.8 µM | TGI (RXF 393 renal): 25.5 µM | TGI (SR leukemia): > 100 µM | TGI (HL-60(TB) leukemia): > 100 µM | TGI (A549 NSCLC): > 100 µM | TGI (NCI-H23 lung): > 100 µM | TGI (A498 renal): > 89.4 µM | TGI (COLO 205 colon): 38.8 µM | TGI (HCT-116 colon): 26.1 µM | TGI (HT29 colon): > 100 µM | TGI (RPMI-8226 leukemia): > 100 µM | TGI (NCI/ADR-RES ovarian): > 57.5 µM | TGI (SK-MEL-28 melanoma): 46.7 µM
